Results published in PMC7355663, “Microscale Thermophoresis as a Screening Tool to Predict Melanin Binding of Drugs” (Pharmaceutics, 2020).

What was measured:
[1] = Label-free microscale thermophoresis (MST) melanin binding assay; settings: Table S2; 80% excitation power; read-out: Kd, initial fluorescence mode
melanin [2] = test: in vitro; settings: pig, pH 7.4
Experimental: (§1) The traditional melanin binding assay was conducted with melanin from the porcine RPE-choroid. We used previously published methods for melanin isolation and drug binding. Fresh melanin suspension and test compound solutions were prepared before each experiment. The melanin suspension (in PBS, pH 7.4) was sonicated in a bath sonicator for 30 min (Elmasonic S 40 H, Elma Schmidbauer GmbH, Singen, Germany) before the experiment. The incubation with test compounds took place at 37 °C on a shaker (220 rpm), and the melanin concentration in the assay was 1 mg/mL (0.15 mg/well). In the control samples, PBS buffer (pH 7.4) was used instead of the melanin suspension. Three individual replicates were made for each experiment. After 20 h incubation, the samples were centrifuged at 20,000× g for 20 min, and supernatant containing the unbound ligand was collected for analysis.
(§2) Samples having an estimated concentration of 0.5 µM or higher were analyzed with ultra-high pressure liquid chromatography (UPLC) (Acquity UPLC, Waters, Milford, MA, USA) with UV detection (Photodiode Array Detector, Waters, MA, USA). The separation was carried out on a Luna Omega Polar C18 (1.6 μm, 2.1 × 50 mm^2) column (Phenomenex) at 30 °C. Injection volume was 4 µL. Gradient mode was used for all the compounds with an acetonitrile/15 mM phosphate buffer (pH 2) mobile phase. Gradient duration was 3−5 min depending on the sample (levofloxacin, terazosin, and papaverine).
(§3) All internal standards, namely levofloxacin D8, terazosin D8, and papaverine D3, were purchased from Toronto Research Chemicals (Toronto, ON, Canada). […] Injection volumes were 0.2 μL for terazosin, 0.3 µL for levofloxacin, and 0.15 µl for papaverine with a flow through needle injection system. The mobile phase consisted of 0.1% formic acid (Merck, Darmstadt, Germany) in ultrapure water (A) and 100% LC–MS grade acetonitrile (Honeywell, Seelze, Germany) (B). […] The gradient for levofloxacin was the same as for papaverine, but the total run time was 6 min. The flow rate was 0.3 mL/min for all the compounds.
(§4) Mass spectrometric measurements were carried out using a Waters Xevo TQ-S triple quadruple mass spectrometer coupled with an electrospray ionization (ESI) on a positive mode for all three compounds. Optimized MS-parameters were as follows: capillary 1.5 kV (terazosin and papaverine), 3.5 kV (levofloxacin), cone voltage 80 V (terazosin) and 8 V (terazosin D8), 22 V (papaverine and papaverine D3), 28 V (levofloxacin and levofloxacin D8), source temperature 150 °C, and desolvation temperature 500 °C (terazosin) or 450 °C (papaverine and levofloxacin). Nitrogen (AGA, Helsinki, Finland) was used as the desolvation gas (1000 L·h^−1 terazosin, 800 L·h^−1 papaverine and levofloxacin) and the cone gas (150 L·h^−1), argon (AGA, Helsinki, Finland) as the collision gas. Multiple reaction monitoring (MRM) mode was employed for quantification. […] The resulting data were analyzed with Waters MassLynx V4.1 software. To consider the effect of melanin on the analyses, separate samples containing only melanin in PBS (with no test compound) were also studied.
(§5) The binding parameters were determined with Sips isotherm (Equation (2)) as described by Manzanares et al.. B = (Bmax × [L]^n)/(Kd^n + [L]^n)(2) where B is the amount of bound drug (nmol·mg^−^1); Bmax is the maximum binding capacity (nmol·mg^−^1); [L] is the free drug concentration (µM); n is the heterogeneity index (assuming heterogeneity of the surface of the melanin particles); and Kd represents the dissociation constant (µM).

[3] = Traditional melanin binding assay (equilibrium binding, Sips isotherm)
Experimental: as §1, §2, §3, §4, §5

melanin [4] = test: Prediction of unbound ligand fraction in vivo (human RPE-choroid); settings: human, human RPE-choroid (predicted), 34.8 mg/mL melanin
Experimental: (§6) Unbound ligand fractions in vivo were calculated considering melanin binding as the only driver of nonspecific tissue binding.
(§7) Linear regression was used to describe the relationship between the Kd values obtained with the MST and the predicted unbound ligand fractions in human RPE-choroid obtained with calculations described above.
(§8) The Kd values obtained with MST consider only one class of binding site, whereas the Sips isotherm (the traditional binding assay) depicts different binding energies and binding sites. […] This approach is relevant to evaluate the melanin binding.

[5] = as above; settings: class by predicted fraction unbound in vivo, human RPE-choroid
Experimental: as §6, §7, §8

[6] = Label-free microscale thermophoresis (MST) melanin binding assay
Experimental: Synthetic melanin was purchased from Sigma Aldrich (#M8631-100 mg). Melanin nanoparticles were prepared as described earlier by Fan et al., and low-binding pipette tips (Maxymum RecoveryTM pipet tips, Corning Incorporated, Salt Lake City, UT, USA) and tubes (No stick microtubes, Alpha Laboratories, Hampshire, UK) were used with both melanin and melanin nanoparticles. Briefly, melanin was dissolved into 1 N NaOH with a concentration of 2 mg/mL and stirred by vortexing. The solution was neutralized by adding an equal volume of 1 N HCl. […] After the final centrifugation, the resulting nanoparticles were suspended into a small volume of sterile water and freeze-dried for 48–72 h (ModulyoD-230, Thermo Savant, Holbrook, NY, USA), and stored at −20 °C until the binding assays.
Melanin binding of each of the 13 model compounds was determined (for the concentrations in the assay, see Table 1). The dilution series of drugs were prepared onto a PCR plate (4titude PCR Plate, Skirted, #4ti-0740, Brooks Life Sciences, Chelmsford, MA, USA) in phosphate buffered saline (PBS, pH 7.4). […] The compound dilutions (10 µL) were transferred into 0.2 mL PCR tube strips (#TBS0201, Bio-Rad Laboratories, Inc., Hercules, CA, USA), and an equal volume of 1 mg/mL melanin nanoparticle dilution was added, resulting in a final melanin concentration of 0.5 mg/mL. At least three biological replicates (individually incubated dilution series) were prepared for each compound (n = 3–5). A reference sample containing only melanin nanoparticles and PBS (pH 7.4) was included in each assay to determine the unbound state in the thermophoresis experiment. Melanin nanoparticles were incubated with the compounds at room temperature for at least 2 h.
After >2 h incubation, the melanin–ligand complexes were mixed gently with a pipette to ensure melanin solution homogeneity and then transferred into capillaries (Monolith NT.115 Premium capillaries, #MOK025, NanoTemper Technologies GmbH, München, Germany). The samples were analyzed with a Monolith NT.115 pico device using MO.Control Software (both from NanoTemper Technologies GmbH, München, Germany) using nano-blue excitation, LED light adjusted to 60% excitation power, and infrared laser (MST power) set to high. […] The equation is based on the Langmuir binding isotherm. […] Equation (1) is a follows:(1) f(c)=Unbound+(Bound−Unbound)×c+c(target)+Kd−(c+c(target)+Kd)^2−4c×c(target)/2c(target) where f(c) is the fraction bound at a given ligand concentration c. Unbound is either the normalized fluorescence signal (Fnorm; MST mode) or raw fluorescence counts (initial fluorescence mode) of the target alone. Bound is either the normalized fluorescence signal or raw fluorescence counts (initial fluorescence mode) of the melanin–ligand complex. Kd is the dissociation constant or binding affinity, and c (target) is the final concentration of the target in the assay.
The normalized fluorescence is the ratio of relative fluorescence of the selected region after heating (hot region) and relative initial fluorescence before the heating (cold region, i.e., relative fluorescence values before the infrared laser was switched on). The MST traces displaying the changes in the relative fluorescence over time (heating) with the selected hot and cold regions are presented in the Supplementary Materials. In the case of ligand-induced changes in the initial raw fluorescence counts, the raw fluorescence counts prior to the heating were used (initial fluorescence mode). If the ligand-induced fluorescence changes were not observed, the normalized fluorescence signals (MST mode) were used to determine the Kd (for additional information, see the Supplementary Materials). […] Affinity Analysis Software.
Kd determination strategies. The Kd values were tested in both initial fluorescence and the above
described MST modes within the MO Affinity Analysis Software (Fig. S1, Table S1) and the Kd values

Structure (SMILES): C[C@H]1COc2c(N3CCN(C)CC3)c(F)cc3c(=O)c(C(=O)O)cn1c23 [Levofloxacin]
- Kd [1]: 54 µM
- fraction unbound at 20 h, 1 µM (melanin [2]): 0.28
- Target Capacity ± SE, traditional method (Sips isotherm) ([3]; Bmax multiplied with 0.5 mg/mL melanin concentration of the MST assay): 36 ± 5.5 µM
- n ± SE, traditional method (Sips isotherm) ([3]; heterogeneity index, 1 mg/mL melanin, PBS pH 7.4, 37 °C, 20 h): 0.73 ± 0.02
- Bmax ± SE, traditional method (Sips isotherm) ([3]; maximum binding capacity, 1 mg/mL melanin, PBS pH 7.4, 37 °C, 20 h): 72 ± 11 nmol/mg
- Kd ([3]; read-out: Kd ± SE, traditional method (Sips isotherm), 1 mg/mL melanin, PBS pH 7.4, 37 °C, 20 h): 157 ± 56 µM
- fraction unbound at 1 µM (melanin [4]): 0.0033
- Melanin binding class based on traditional assay [5]: high
- Kd ([6]; 0.5 mg/mL (12.5 µM) melanin nanoparticles, PBS pH 7.4, room temperature, 68% confidence, initial fluorescence mode for compounds marked *, otherwise MST mode, read-out: Kd ± Kd Confidence (MST)): 46.5 ± 40.1 µM
- Kd ([6]; Table S2, normalized fluorescence, 60% excitation power, read-out: Kd, MST mode (Fnorm)): 47 µM
